Source: US9409907B2, “Inhibitor compounds” (Cancer Research Technology Limited, priority 2012, dated 2016)

What follows are compounds tested against full length MPS1 (Homo sapiens (Human), UniProt P33981) (assay: Measurement of inhibition of MPS1 kinase (Caliper EZ reader mobility-shift enzyme assay)). Conditions: full length MPS1 12.5 nM or 3 nM, H236 peptide 5 μM, ATP 10 μM, 60 min at room temperature.
Type: biochemical
Experimental: Measurement of Inhibition of MPS1 Kinase
The reaction was carried out for 60 min at room temperature and stopped by the addition of buffer (10 μl) containing 20 mM EDTA, 0.05% (v/v) Brij-35, in 0.1M HEPES-buffered saline (Free acid, Sigma, UK). The plate was read on a Caliper EZ reader II (Caliper Life Sciences).
The % inhibition of the compounds is calculated relative to the means of selected control wells.

Sequence of full length MPS1 (P33981 whole entry): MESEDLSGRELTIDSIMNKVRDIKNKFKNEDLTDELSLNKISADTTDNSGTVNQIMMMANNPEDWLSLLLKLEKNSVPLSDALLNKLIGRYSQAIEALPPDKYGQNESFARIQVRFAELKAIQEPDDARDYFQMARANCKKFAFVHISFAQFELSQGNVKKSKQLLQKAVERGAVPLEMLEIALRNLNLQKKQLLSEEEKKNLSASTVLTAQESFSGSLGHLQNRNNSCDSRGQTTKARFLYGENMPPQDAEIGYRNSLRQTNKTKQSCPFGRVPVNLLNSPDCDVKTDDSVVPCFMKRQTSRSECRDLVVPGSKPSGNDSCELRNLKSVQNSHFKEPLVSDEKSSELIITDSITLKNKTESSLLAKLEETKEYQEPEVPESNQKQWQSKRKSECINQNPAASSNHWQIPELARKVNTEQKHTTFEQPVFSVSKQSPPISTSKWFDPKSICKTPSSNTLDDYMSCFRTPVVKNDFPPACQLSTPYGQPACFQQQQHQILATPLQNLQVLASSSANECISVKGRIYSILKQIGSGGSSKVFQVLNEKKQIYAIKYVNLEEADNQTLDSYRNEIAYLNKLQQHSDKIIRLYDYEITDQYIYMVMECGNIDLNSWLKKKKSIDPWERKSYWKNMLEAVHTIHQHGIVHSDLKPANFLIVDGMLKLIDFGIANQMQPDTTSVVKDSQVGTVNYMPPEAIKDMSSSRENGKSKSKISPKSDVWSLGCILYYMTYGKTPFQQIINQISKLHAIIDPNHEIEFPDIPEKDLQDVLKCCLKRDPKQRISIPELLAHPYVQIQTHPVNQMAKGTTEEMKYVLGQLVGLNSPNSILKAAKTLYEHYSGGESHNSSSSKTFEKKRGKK

Row | IC50 [nM] | SMILES
1 | 9 | COc1cc(-c2cnn(C)c2CO)ccc1Nc1ncc2cc(C)nc(NCC(C)(C)OC)c2n1 [Example 198]
2 | 25 | CS(=O)(=O)c1ccc(Nc2ncc3ccnc(N4CCC5(COC5)C4)c3n2)c(Cl)c1 [Example 199]
3 | 6 | Clc1cc(-c2cncnc2)ccc1Nc1ncc2ccnc(N3CCC4(COC4)C3)c2n1 [Example 200]
4 | 40 | Cc1nnc(-c2ccc(Nc3ncc4ccnc(N5CCC6(COC6)C5)c4n3)c(Cl)c2)o1 [Example 201]
5 | 70 | COC(C)(C)CNc1nccc2cnc(Nc3ccc(Cl)cc3OC(F)F)nc12 [Example 202]
6 | 46 | COC(C)(C)CNc1nccc2cnc(Nc3ccc(F)cc3OC(F)F)nc12 [Example 203]
7 | 2 | COC(C)(C)CNc1nccc2cnc(Nc3ccc(-c4cnn(C)c4)cc3OC(F)F)nc12 [Example 204]
8 | 87 | N#Cc1ccc(Nc2ncc3ccnc(N4CCC5(COC5)C4)c3n2)c(Cl)c1 [Example 205]
9 | 17 | COc1cc(C#N)ccc1Nc1ncc2ccnc(N3CCC4(COC4)C3)c2n1 [Example 206]
10 | 94 | Clc1ccc(Nc2ncc3ccnc(N4CCC5(COC5)C4)c3n2)c(Cl)c1 [Example 207]
11 | 200 | COc1cc(-c2cnn(C)c2)ccc1Nc1ncc2ccnc(-c3cncnc3)c2n1 [Example 208, N-(2-methoxy-4-(1-methyl-1H-pyrazol-4-yl)phenyl)-8-(pyrimidin-5H)pyrido[3,4-d]pyrimidin-2-amine]
12 | 7 | COc1cc(-c2cnn(C)c2)ccc1Nc1ncc2ccnc(-c3ccncc3)c2n1 [Example 209, N-(2-Methoxy-4-(1-methyl-1H-pyrazol-4-yl)phenyl)-8-(pyridin-4-yl)pyrido[3,4-d]pyrimidin-2-amine pyridin-4-ylboronate]
